This assay has as its target T1, PDE4B2 (Homo sapiens, UniProt Q07343).
T1 construct: made in house; host or cells: SF21 insect cells (baculovirus; virus prepared in SF9 cells)
The experiment in a line: Inhibition of PDE4B2 activity, modified [3H]cAMP SPA (scintillation proximity assay). Format: biochemical. Particulars: recombinant PDE4B2 expressed in SF21 insect cells; 0.5 μM cAMP; 15 min at 37° C.; read-out: Inhibition of the PDE4 activity, −log IC50(mol/l) (converted). The method, then:
The PDE4B2 (GB no. M97515) was a gift of Prof. M. Conti (Stanford University, USA). It was amplified from the original plasmid (pCMV5) via PCR with primers. Rb9 (5′- […] -3′) and Rb 10 (5′- […] -3′) and cloned into the pCR-Bac vector (Invitrogen, Groningen, NL).
The recombinant baculovirus was prepared by means of homologous recombination in SF9 insect cells. The expression plasmid was cotransfected with Bac-N-Blue (Invitrogen, Groningen, NL) or Baculo-Gold DNA (Pharmingen, Hamburg) using a standard protocol (Pharmingen, Hamburg). Wt virus-free recombinant virus supernatant was selected using plaque assay methods. After that, high-titre virus supernatant was prepared by amplifying 3 times. PDE was expressed in SF21 cells by infecting 2×10^6 cells/ml with an MOI (multiplicity of infection) between 1 and 10 in serum-free SF900 medium (Life Technologies, Paisley, UK). […]
The SF21 insect cells were resuspended, at a concentration of approx. 10^7 cells/ml, in ice-cold (4° C.) homogenization buffer (20 mM Tris, pH 8.2, containing the following additions: 140 mM NaCl, 3.8 mM KCl, 1 mM EGTA, 1 mM MgCl2, 10 mM β-mercaptoethanol, 2 mM benzamidine, 0.4 mM Pefablock, 10 μM leupeptin, 10 μM pepstatin A, 5 μM trypsin inhibitor) and disrupted by ultrasonication. […] The protein content was determined by the Bradford method (BioRad, Munich) using BSA as the standard. […]
(Scintillation proximity formats need no separation of bound from free tracer.)

T1 sequence (Q07343 1-564 isoform Q07343-2): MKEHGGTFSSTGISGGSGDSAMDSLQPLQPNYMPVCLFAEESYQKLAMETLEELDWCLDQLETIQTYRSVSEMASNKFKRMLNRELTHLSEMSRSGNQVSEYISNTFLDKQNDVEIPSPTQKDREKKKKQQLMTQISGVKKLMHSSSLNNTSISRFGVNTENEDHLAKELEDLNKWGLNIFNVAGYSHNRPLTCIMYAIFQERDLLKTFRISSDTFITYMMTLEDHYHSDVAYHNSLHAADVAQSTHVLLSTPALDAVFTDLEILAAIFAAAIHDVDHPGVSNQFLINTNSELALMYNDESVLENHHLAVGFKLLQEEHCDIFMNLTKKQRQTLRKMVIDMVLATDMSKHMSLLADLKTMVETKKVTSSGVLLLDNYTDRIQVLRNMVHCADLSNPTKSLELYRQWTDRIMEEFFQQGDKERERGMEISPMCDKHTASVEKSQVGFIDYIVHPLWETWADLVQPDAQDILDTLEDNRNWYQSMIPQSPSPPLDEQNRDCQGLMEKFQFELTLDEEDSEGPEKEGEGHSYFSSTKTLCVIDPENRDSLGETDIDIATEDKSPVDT

On to `CCOc1cc2c(cc1OC)C(c1cccc(NC(=O)CCNC(N)=O)c1)=N[C@@H]1CC[C@@H](O)C[C@H]21` (racemic) [Compound 19, N-[3-((2RS,4aRS,10bRS)-9-Ethoxy-2-hydroxy-8-methoxy-1,2,3,4,4a,10b-hexahydro-phenanthridin-6-yl)-phenyl]-3-ureido-propionamide], for which the IC50 is 1.48 nM.
